Several values for one entry are separate records, joined by “and”; a condition that tells them apart may be missing. Identical values can stand only once.
Target: T1, Alpha-1A adrenergic receptor (Canis lupus familiaris, UniProt O77621)
T1 sequence (O77621 whole entry): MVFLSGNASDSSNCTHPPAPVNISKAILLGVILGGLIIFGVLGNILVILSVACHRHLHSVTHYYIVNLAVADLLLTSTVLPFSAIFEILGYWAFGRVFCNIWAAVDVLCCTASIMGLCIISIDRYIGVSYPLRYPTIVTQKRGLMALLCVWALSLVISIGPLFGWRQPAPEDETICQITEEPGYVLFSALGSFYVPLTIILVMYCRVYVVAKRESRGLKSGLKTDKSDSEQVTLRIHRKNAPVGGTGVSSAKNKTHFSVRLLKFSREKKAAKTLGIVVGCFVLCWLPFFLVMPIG

SMILES | Ki
COC(=O)[C@@H]1[C@H]2C[C@H]3c4[nH]c5ccccc5c4CCN3C[C@@H]2CC[C@@H]1O [yohimbic acid methyl ester] | 32 nM and 13.4 nM
CNCC(O)c1ccc(O)c(O)c1 (stereo not drawn) [EPINEPHRINE] | 110 nM and 30 nM
COc1cc2nc(N3CCN(C(=O)c4ccco4)CC3)nc(N)c2cc1OC [[3H]-Minipress] | 0.02 nM and 0.01 nM
NCC(O)c1ccc(O)c(O)c1 (stereo not drawn) [Noradrenaline,(+)] | 178 nM and 67 nM
CNC[C@H](O)c1cccc(O)c1 [PHENYLEPHRINE] | 901 nM and 213 nM
Clc1cccc(Cl)c1N=C1NCCN1 [2-(2,6-dichloroanilino)-2-imidazoline] | 37 nM

Next, values leading:

Ki | SMILES
33 nM and 9 nM | Cc1cc(C(C)(C)C)c(O)c(C)c1CC1=NCCN1 [SMR000059324]
2.55 nM and 1.27 nM | Cc1ccc(N(CC2=NCCN2)c2cccc(O)c2)cc1 [SMR000059054]
